In US20150315211A1, “SMALL MOLECULES FOR THE MODULATION OF MCL-1 AND METHODS OF MODULATING CELL DEATH, CELL DIVISION, CELL DIFFERENTIATION AND METHODS OF TREATING DISORDERS” (priority 2010, published 2015):

test system: MCL-1ΔNΔC; test: High-throughput competitive FP binding screen, FITC-MCL-1 SAHB/MCL-1ΔNΔC interaction; details: selectivity for MCL-1ΔNΔC over BCL-XLΔC targeting (BCL-XL % Bound minus MCL-1 % Bound)

| SMILES | Spec Values |
| --- | --- |
| COc1ccc(C(Nc2cc(C)ccn2)c2ccc3cccnc3c2O)cc1O (stereo not drawn) | 65.85 |
| c1cc2nsnc2c2c1Nc1nc3nonc3nc1N2 | 65.78 |
| Cc1ncc(CO)c2c1Oc1nc(-c3ccccc3)[nH]c(=S)c1C2 | 65.07 |
| CCCCc1c(C)sc(NC(=S)Nn2cnnc2)c1C(=O)OCC | 64.95 |
| CC1CCc2c(sc3[nH]c(=S)sc(=N)c23)C1 (stereo not drawn) | 64.71 |
| O=C1C=Cc2ccc3c4c(ccc1c24)C=CC3=O | 64.7 |
| O=C(O)C1Nc2c(I)cccc2C2C=CCC12 (stereo not drawn) | 64.16 |
| Cc1ccc(CCNC(=O)c2ccc3nc(-c4ccco4)c(-c4ccco4)nc3c2)cc1 | 64.01 |
| Clc1cccc2c(N3CCCCCC3)cnnc12 | 63.59 |
| Cc1ccc(C)c2[nH]c(=O)c(C(c3nnnn3C3CCCC3)N3CCCC3)cc12 (stereo not drawn) | 63.57 |
| CS(=O)(=O)CS(=O)(=O)NNc1ncc(C(F)(F)F)cc1Cl | 63.45 |
| CCCCn1c(=O)[nH]c(=O)c2c1nc(-c1cccs1)c(=O)n2C | 62.84 |
| CCCCC(=O)Cc1ccco1 | 62.08 |
| O=C1C=CC(=O)C(CCC2=CC(=O)C=CC2=O)=C1 | 61.8 |
| O=C(CSc1nc2c(sc(=S)n2Cc2ccco2)c(=O)n1-c1ccccc1)c1ccc(O)c(O)c1 | 61.48 |
| N#C/C(=C/C=C/c1ccc(-c2cc(Cl)ccc2Cl)o1)C(N)=S | 60.96 |
| N#CC1=C(c2ccc(Cl)cc2)COC1=O | 60.84 |
| O=C(CSc1nnc(-c2ccco2)c(-c2ccco2)n1)N1c2ccccc2Sc2ccc(Cl)cc21 | 60.7 |
| O=C1C=CC(=O)C(CCCCCCC2=CC(=O)C=CC2=O)=C1 | 59.34 |

The next lines start with the values.

| Spec Values | SMILES |
| --- | --- |
| 64.61 | CC1=C/C(=N\Nc2ccccc2Cl)CC1 |
| 64.25 | O=C(O)c1cccc(-c2ccc(CC3Sc4ccccc4C3=O)o2)c1 (stereo not drawn) |
| 63.14 | CN1C(=O)C2(NN=C(c3ccccc3)S2)c2cc(Br)ccc21 (stereo not drawn) |
| 63.07 | O=C(NN=C1CCCC1)c1ccccc1NS(=O)(=O)c1cccs1 |
| 63.02 | Cc1nc2c(C(=O)NCc3ccccc3Cl)cnn2c(O)c1Cl |
| 62.99 | O=C(c1ccc(O)cc1)N1CCN(c2cccc(Cl)c2)CC1 |
| 62.88 | O=C(c1ccccc1)c1nc2ccccc2oc1=O |
| 62.71 | Oc1cccc(C(c2ccc3cccnc3c2O)N2CCCC2)c1 (stereo not drawn) |
| 61.73 | Cc1nc(COC(=O)c2cc(O)c3ccccc3c2O)cs1 |
| 60.88 | Cn1c(/N=C/c2c(O)ccc3ccccc23)nc2ccc(Br)cc21 |
| 60.36 | N#C/C(=C/c1cn(Cc2ccc(C(=O)O)o2)c2ccccc12)c1ccc(F)cc1 |
| 59.46 | CS/C(=N\S(=O)(=O)c1ccccc1)NNc1ccccc1 |

target: BCL-XLΔC (Homo sapiens, UniProt Q07817); test: High-throughput competitive FP binding screen, FITC-BAD BH3/BCL-XLΔC interaction; details: FITC-BAD BH3/BCL-XLΔC interaction pair, competitive FP screen
Sequence (Q07817 1-212 limits assumed, stated change not applied): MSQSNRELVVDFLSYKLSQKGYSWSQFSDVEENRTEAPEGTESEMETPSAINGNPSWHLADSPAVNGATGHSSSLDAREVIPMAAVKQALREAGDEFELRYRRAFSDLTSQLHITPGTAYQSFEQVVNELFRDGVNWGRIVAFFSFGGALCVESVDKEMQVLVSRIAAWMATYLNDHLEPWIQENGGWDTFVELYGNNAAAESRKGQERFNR

| SMILES | BCL-XL % Bound [%] |
| --- | --- |
| COc1ccc(C(Nc2cc(C)ccn2)c2ccc3cccnc3c2O)cc1O (stereo not drawn) | 93.02 |
| c1cc2nsnc2c2c1Nc1nc3nonc3nc1N2 | 57.68 |
| Cc1ncc(CO)c2c1Oc1nc(-c3ccccc3)[nH]c(=S)c1C2 | 131.2 |
| CCCCc1c(C)sc(NC(=S)Nn2cnnc2)c1C(=O)OCC | 69.53 |
| CC1CCc2c(sc3[nH]c(=S)sc(=N)c23)C1 (stereo not drawn) | 83.66 |
| O=C1C=Cc2ccc3c4c(ccc1c24)C=CC3=O | 91.4 |
| O=C(O)C1Nc2c(I)cccc2C2C=CCC12 (stereo not drawn) | 100.3 |
| Cc1ccc(CCNC(=O)c2ccc3nc(-c4ccco4)c(-c4ccco4)nc3c2)cc1 | 99.74 |
| Clc1cccc2c(N3CCCCCC3)cnnc12 | 85.37 |
| Cc1ccc(C)c2[nH]c(=O)c(C(c3nnnn3C3CCCC3)N3CCCC3)cc12 (stereo not drawn) | 103.3 |
| CS(=O)(=O)CS(=O)(=O)NNc1ncc(C(F)(F)F)cc1Cl | 104.7 |
| CCCCn1c(=O)[nH]c(=O)c2c1nc(-c1cccs1)c(=O)n2C | 68.85 |
| CCCCC(=O)Cc1ccco1 | 103 |
| O=C1C=CC(=O)C(CCC2=CC(=O)C=CC2=O)=C1 | 93.01 |
| O=C(CSc1nc2c(sc(=S)n2Cc2ccco2)c(=O)n1-c1ccccc1)c1ccc(O)c(O)c1 | 120.9 |
| N#C/C(=C/C=C/c1ccc(-c2cc(Cl)ccc2Cl)o1)C(N)=S | 79.39 |
| N#CC1=C(c2ccc(Cl)cc2)COC1=O | 88.12 |
| O=C(CSc1nnc(-c2ccco2)c(-c2ccco2)n1)N1c2ccccc2Sc2ccc(Cl)cc21 | 98.3 |
| O=C1C=CC(=O)C(CCCCCCC2=CC(=O)C=CC2=O)=C1 | 106.5 |

Now from value to compound:

| BCL-XL % Bound [%] | SMILES |
| --- | --- |
| 99.01 | CC1=C/C(=N\Nc2ccccc2Cl)CC1 |
| 95.42 | O=C(O)c1cccc(-c2ccc(CC3Sc4ccccc4C3=O)o2)c1 (stereo not drawn) |
| 81.72 | CN1C(=O)C2(NN=C(c3ccccc3)S2)c2cc(Br)ccc21 (stereo not drawn) |
| 92.34 | O=C(NN=C1CCCC1)c1ccccc1NS(=O)(=O)c1cccs1 |
| 94.42 | Cc1nc2c(C(=O)NCc3ccccc3Cl)cnn2c(O)c1Cl |
| 90.71 | O=C(c1ccc(O)cc1)N1CCN(c2cccc(Cl)c2)CC1 |
| 43.27 | O=C(c1ccccc1)c1nc2ccccc2oc1=O |
| 106.4 | Oc1cccc(C(c2ccc3cccnc3c2O)N2CCCC2)c1 (stereo not drawn) |
| 101.3 | Cc1nc(COC(=O)c2cc(O)c3ccccc3c2O)cs1 |
| 31.24 | Cn1c(/N=C/c2c(O)ccc3ccccc23)nc2ccc(Br)cc21 |
| 65.03 | N#C/C(=C/c1cn(Cc2ccc(C(=O)O)o2)c2ccccc12)c1ccc(F)cc1 |
| 99.39 | CS/C(=N\S(=O)(=O)c1ccccc1)NNc1ccccc1 |

target: MCL-1ΔNΔC (Homo sapiens, UniProt Q07820); test: High-throughput competitive FP binding screen, FITC-MCL-1 SAHB/MCL-1ΔNΔC interaction; set-up: the C-terminal alpha-helix was deleted from each of these constructs; GST (N, cleaved yes); made in house; details: FITC-MCL-1 SAHB/MCL-1ΔNΔC interaction pair, competitive FP screen
Sequence (Q07820 172-320 limits assumed, stated change not applied): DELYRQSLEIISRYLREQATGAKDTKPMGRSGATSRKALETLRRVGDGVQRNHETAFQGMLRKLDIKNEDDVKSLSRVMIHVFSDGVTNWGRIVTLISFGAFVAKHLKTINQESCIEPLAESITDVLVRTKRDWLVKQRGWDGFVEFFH

| SMILES | MCL-1% Bound [%] |
| --- | --- |
| COc1ccc(C(Nc2cc(C)ccn2)c2ccc3cccnc3c2O)cc1O (stereo not drawn) | 27.17 |
| c1cc2nsnc2c2c1Nc1nc3nonc3nc1N2 | −8.097 |
| Cc1ncc(CO)c2c1Oc1nc(-c3ccccc3)[nH]c(=S)c1C2 | 66.14 |
| CCCCc1c(C)sc(NC(=S)Nn2cnnc2)c1C(=O)OCC | 4.578 |
| CC1CCc2c(sc3[nH]c(=S)sc(=N)c23)C1 (stereo not drawn) | 18.95 |
| O=C1C=Cc2ccc3c4c(ccc1c24)C=CC3=O | 26.7 |
| O=C(O)C1Nc2c(I)cccc2C2C=CCC12 (stereo not drawn) | 36.12 |
| Cc1ccc(CCNC(=O)c2ccc3nc(-c4ccco4)c(-c4ccco4)nc3c2)cc1 | 35.73 |
| Clc1cccc2c(N3CCCCCC3)cnnc12 | 21.78 |
| Cc1ccc(C)c2[nH]c(=O)c(C(c3nnnn3C3CCCC3)N3CCCC3)cc12 (stereo not drawn) | 39.75 |
| CS(=O)(=O)CS(=O)(=O)NNc1ncc(C(F)(F)F)cc1Cl | 41.29 |
| CCCCn1c(=O)[nH]c(=O)c2c1nc(-c1cccs1)c(=O)n2C | 6.013 |
| CCCCC(=O)Cc1ccco1 | 40.94 |
| O=C1C=CC(=O)C(CCC2=CC(=O)C=CC2=O)=C1 | 31.21 |
| O=C(CSc1nc2c(sc(=S)n2Cc2ccco2)c(=O)n1-c1ccccc1)c1ccc(O)c(O)c1 | 59.44 |
| N#C/C(=C/C=C/c1ccc(-c2cc(Cl)ccc2Cl)o1)C(N)=S | 18.44 |
| N#CC1=C(c2ccc(Cl)cc2)COC1=O | 27.28 |
| O=C(CSc1nnc(-c2ccco2)c(-c2ccco2)n1)N1c2ccccc2Sc2ccc(Cl)cc21 | 37.6 |
| O=C1C=CC(=O)C(CCCCCCC2=CC(=O)C=CC2=O)=C1 | 47.19 |

The next lines start with the values.

| MCL-1% Bound [%] | SMILES |
| --- | --- |
| 34.4 | CC1=C/C(=N\Nc2ccccc2Cl)CC1 |
| 31.17 | O=C(O)c1cccc(-c2ccc(CC3Sc4ccccc4C3=O)o2)c1 (stereo not drawn) |
| 18.57 | CN1C(=O)C2(NN=C(c3ccccc3)S2)c2cc(Br)ccc21 (stereo not drawn) |
| 29.27 | O=C(NN=C1CCCC1)c1ccccc1NS(=O)(=O)c1cccs1 |
| 31.4 | Cc1nc2c(C(=O)NCc3ccccc3Cl)cnn2c(O)c1Cl |
| 27.72 | O=C(c1ccc(O)cc1)N1CCN(c2cccc(Cl)c2)CC1 |
| −19.61 | O=C(c1ccccc1)c1nc2ccccc2oc1=O |
| 43.7 | Oc1cccc(C(c2ccc3cccnc3c2O)N2CCCC2)c1 (stereo not drawn) |
| 39.52 | Cc1nc(COC(=O)c2cc(O)c3ccccc3c2O)cs1 |
| −29.64 | Cn1c(/N=C/c2c(O)ccc3ccccc23)nc2ccc(Br)cc21 |
| 4.673 | N#C/C(=C/c1cn(Cc2ccc(C(=O)O)o2)c2ccccc12)c1ccc(F)cc1 |
| 39.93 | CS/C(=N\S(=O)(=O)c1ccccc1)NNc1ccccc1 |
